Data reported in patent US6756382B2, “Amide substituted imidazoquinolines” (3M Innovative Properties Company, priority 1999, dated 2004).

For `Nc1nc2ccccc2c2c1ncn2CCCCNC(=O)c1cn(Cc2ccccc2)c2ccccc12` [Example 42, N^3-[4-(4-Amino-1H-imidazo[4,5-c]quinolin-1-yl)butyl]-1-benzyl-1H-3-indolecarboxamide], the melting point was 139 °C (dec.).
For `COCCc1nc2c(N)nc3ccccc3c2n1CCCCNC(=O)c1cc(-c2ccccc2)nc2ccccc12` [Example 50, N^4-[4-(4-Amino-2-(2-methoxyethyl)-1H-imidazo[4,5-c]quinolin-1-yl)butyl]-2-phenyl-4-quinolinecarboxamide], the melting point was 118 °C (dec.).
In the case of `Nc1nc2ccccc2c2c1ncn2CCCCNC(=O)c1ccc(Cl)nc1` [Example 53, N^3-[4-(4-Amino-1H-imidazo[4,5-c]quinolin-1-yl)butyl]-6-chloronicotinamide], the melting point is reported as 144 to 148 °C (dec.).
With `Nc1nc2ccccc2c2c1ncn2CCCCNC(=O)c1ccc(OCC(F)(F)F)nc1` [Example 54, N^3-[4-(4-Amino-1H-imidazo[4,5-c]quinolin-1-yl)butyl]-6-(2,2,2-trifluoroethoxy)nicotinamide] the melting point was 192 to 194 °C (dec.).

First: Nc1nc2ccccc2c2c1ncn2CCCCNC(=O)c1cccnc1 [Example 47, N^3-[4-(4-Amino-1H-imidazo[4,5-c]quinolin-1-yl)butyl]nicotinamide]
Second: Nc1nc2ccccc2c2c1ncn2CCCCNC(=O)c1ccncc1 [Example 48, N^4-[4-(4-Amino-1H-imidazo[4,5-c]quinolin-1-yl)butyl]isonicotinamide]
The melting point of the first is lower: 188.6 to 189.5 °C for the first, 213 to 213.7 °C for the second.

First: Nc1nc2ccccc2c2c1ncn2CCCCNC(=O)c1ccnc2ccccc12 [Example 49, N^4-[4-(4-Amino-1H-imidazo[4,5-c]quinolin-1-yl)butyl]-4-quinolinecarboxamide]
Second: Nc1nc2ccccc2c2c1ncn2CCCCNC(=O)c1ccc(Oc2ccccc2)cc1 [Example 64, N^1-[4-(4-Amino-1H-imidazo[4,5-c]quinolin-1-yl)butyl]-4-phenoxybenzamide]
The melting point of the first is higher: 214.5 to 215.2 °C for the first, 90.5 to 91.5 °C for the second.

Compared with `CCCCCSc1ncccc1C(=O)NCCCCn1cnc2c(N)nc3ccccc3c21` [Example 51, N^3-[4-(4-Amino-1H-imidazo[4,5-c]quinolin-1-yl)butyl]-2-(pentylsulfanyl)nicotinamide], `N#Cc1ccc(C(=O)NCCCCn2cnc3c(N)nc4ccccc4c32)cn1` [Example 52, N^3-[4-(4-Amino-1H-imidazo[4,5-c]quinolin-1-yl)butyl]-6-cyanonicotinamide] is lower in melting point: 158 to 161 °C for the first, 125 to 129 °C for the second.

First: COCCc1nc2c(N)nc3ccccc3c2n1CCCCNC(=O)c1ccc2ccccc2n1 [Example 55, N^2-{4-[4-Amino-2-(2-methoxyethyl)-1H-imidazo[4,5-c]quinolin-1-yl]butyl}-2-quinolinecarboxamide]
Second: COCCc1nc2c(N)nc3ccccc3c2n1CCCCNC(=O)c1nccc2ccccc12 [Example 57, N^1-{4-[4-Amino-2-(2-methoxyethyl)-1H-imidazo[4,5-c]quinolin-1-yl]butyl}-1-isoquinolinecarboxamide]
The melting point of the first is higher: 78.1 to 79.9 °C for the first, 61 to 63 °C for the second.

Compared with `CC(C(=O)NCCCCn1cnc2c(N)nc3ccccc3c21)c1ccc(-c2ccccc2)c(F)c1` (centres unmarked) [Example 56, N^1-[4-(4-Amino-1H-imidazo[4,5-c]quinolin-1-yl)butyl]-2-(2-fluoro-4-biphenylyl)propanamide], `Nc1nc2ccccc2c2c1nc(-c1ccccc1)n2CCCCNC(=O)c1cccnc1` [Example 66, N^3-[4-(4-Amino-2-phenyl-1H-imidazo[4,5-c]quinolin-1-yl)butyl]nicotinamide] is higher in melting point: 76.1 to 79.9 °C for the first, 84.5 to 86.1 °C for the second.

Compared with `CCCCc1ccc(C(=O)NCCCCn2c(CCOC)nc3c(N)nc4ccccc4c32)nc1` [Example 58, N^2-{4-[4-Amino-2-(2-methoxyethyl)-1H-imidazo[4,5-c]quinolin-1-yl]butyl}-5-butyl-2-pyridinecarboxamide], `COCCc1nc2c(N)nc3ccccc3c2n1CCCCNC(=O)c1c[nH]c2ccccc12` [Example 59, N^3-{4-[4-Amino-2-(2-methoxyethyl)-1H-imidazo[4,5-c]quinolin-1-yl]butyl}-3-indolecarboxamide] is higher in melting point: 54.9 to 55.2 °C for the first, 225.5 to 227.4 °C for the second.

First: COCCc1nc2c(N)nc3ccccc3c2n1CCCCNC(=O)c1ccc(-n2cccc2)cc1 [Example 60, N^1-{4-[4-Amino-2-(2-methoxyethyl)-1H-imidazo[4,5-c]quinolin-1-yl]butyl}-4-(1-pyrrolyl)benzamide]
Second: COCCc1nc2c(N)nc3ccccc3c2n1CCCCNC(=O)c1cncc(C#Cc2ccccc2)c1 [Example 65, N^5-{4-[4-Amino-2-(2-methoxyethyl)-1H-imidazo[4,5-c]quinolin-1-yl]butyl}-5-(2-phenyl-1-ethynyl)nicotinamide]
The melting point of the first is higher: 173 to 174.9 °C for the first, 76 to 78 °C for the second.

First: COc1ccc(Cc2nc3c(N)nc4ccccc4c3n2CCCCNC(=O)c2ccc3ccccc3n2)cc1 [Example 61, N^2-{4-[4-Amino-2-(4-methoxybenzyl)-1H-imidazo [4,5-c]quinolin-1-yl]butyl}-2-quinolinecarboxamide]
Second: Nc1nc2ccccc2c2c1nc(-c1ccccc1)n2CCCCNC(=O)c1ccc2ccccc2n1 [Example 67, N^2-[4-(4-Amino-2-phenyl-1H-imidazo[4,5-c]quinolin-1-yl)butyl]-2-quinolinecarboxamide]
The melting point of the first is higher: 95.1 to 97.4 °C for the first, 81.1 to 83.9 °C for the second.

First: Nc1nc2ccccc2c2c1nc(CCCOc1ccccc1)n2CCCNC(=O)c1ccc(Br)cc1 [Example 193, N-{3-[4-amino-2-(3-phenoxypropyl)-1H-imidazo[4,5-c]quinolin-1-yl]propyl}-4-bromobenzamide]
Second: CCCC(=O)NCCCCn1c(CC)nc2c(N)nc3ccccc3c21 [Example 200, N-[4-(4-amino-2-ethyl-1H-imidazo[4,5-c]quinolin-1-yl)butyl]butanamide]
The melting point of the first is higher: 186.2 to 186.7 °C for the first, 147.7 to 148.8 °C for the second.

First: COCCc1nc2c(N)nc3c(c2n1CCCNC(=O)c1ccccc1)CCCC3 [Example 195, N-{3-[4-amino-2-(2-methoxyethyl)-6,7,8,9-tetrahydro-1H-imidazo[4,5-c]quinolin-1-yl]propyl}benzamide]
Second: CCc1nc2c(N)nc3ccccc3c2n1CCCCNC(=O)C1CCCC1 [Example 197, N-[4-(4-amino-2-ethyl-1H-imidazo[4,5-c]quinolin-1-yl)butyl]cyclopentanecarboxamide]
The melting point of the first is lower: 167.8 to 169.6 °C for the first, 178.6 to 179.5 °C for the second.

Compared with `Cc1nc2c(N)nc3ccccc3c2n1CCCCNC(=O)C1CCCCC1` [Example 198, N-[4-(4-amino-2-methyl-1H-imidazo[4,5-c]quinolin-1-yl)butyl]cyclohexanecarboxamide], `Cc1nc2c(N)nc3ccccc3c2n1CCCCNC(=O)C1CCCC1` [Example 201, N-[4-(4-amino-2-methyl-1H-imidazo[4,5-c]quinolin-1-yl)butyl]cyclopentanecarboxamide] is lower in melting point: 191.6 to 192.6 °C for the first, 168.6 to 169.8 °C for the second.

Compared with `CCc1nc2c(N)nc3ccccc3c2n1CCCCNC(=O)C(C)C` [Example 199, N-[4-(4-amino-2-ethyl-1H-imidazo[4,5-c]quinolin-1-yl)butyl]-2-methylpropanamide], `Cc1nc2c(N)nc3ccccc3c2n1CCCCNC(=O)C(C)C` [Example 202, N-[4-(4-amino-2-methyl-1H-imidazo[4,5-c]quinolin-1-yl)butyl]-2-methylpropanamide] is higher in melting point: 155.4 to 156.3 °C for the first, 159.7 to 160.7 °C for the second.

First: CCCC(=O)NCCCCn1c(C)nc2c(N)nc3ccccc3c21 [Example 203, N-[4-(4-amino-2-methyl-1H-imidazo[4,5-c]quinolin-1-yl)butyl]butanamide]
Second: CCCC(=O)NCCCn1c(C)nc2c(N)nc3ccccc3c21 [Example 208, N-[3-(4-amino-2-methyl-1H-imidazo[4,5-c]quinolin-1-yl)propyl]butanamide]
The melting point of the first is lower: 169.4 to 170.5 °C for the first, 221.8 to 223.3 °C for the second.

First: Cc1nc2c(N)nc3ccccc3c2n1CCCNC(=O)C1CCCCC1 [Example 205, N-[3-(4-amino-2-methyl-1H-imidazo[4,5-c]quinolin-1-yl)propyl]cyclohexanecarboxamide]
Second: Cc1nc2c(N)nc3ccccc3c2n1CCCNC(=O)C(C)C [Example 207, N-[3-(4-amino-2-methyl-1H-imidazo[4,5-c]quinolin-1-yl)propyl]-2-methylpropanamide]
The melting point of the first is lower: 234.4 to 235.4 °C for the first, 239 to 240.1 °C for the second.
